Data published in patent US12201796B2, “Devices configured to provide treatment at an Abreu brain thermal tunnel” (Brain Tunnelgenix Technologies Corp., priority 2014, dated 2025).

What was measured:
[1] = transdermal melatonin patch on the skin of ABTT target area, research setting; conditions: patch with water, propylene glycol, lauric acid, hydroxypropylcellulose; non-rate-limiting membrane; contact area 1.0 cm^2
Excerpt: As a solution to this problem, MEL was applied transdermally on the skin of ABTT target area 10 using a patch that contained, in a solvent formulation, water, propylene glycol, lauric acid, and hydroxypropylcellulose, and also comprised a non-rate-limiting membrane designed to have active contact with an area 1.0 cm^2.

[2] = in vivo; cited from earlier work
[3] = comparison of caffeine absorption into the blood stream from a patch on ABTT terminus and a patch on an upper arm; assay type: in vivo
Procedure: One experimental technique used by Applicant to verify the efficacy of the systems, apparatuses, devices, processes, and methods disclosed herein was to compare absorption of a chemical into the blood stream. The chosen chemical was caffeine, and a comparison was made between distribution of caffeine in the body from a 15 mm by 15 mm patch placed on ABTT terminus 10 and a 15 mm by 15 mm patch placed on an upper arm. Caffeine concentration was measured in the same location on the body. […] As is evident from FIG. 106, the peak concentration of caffeine from the patch placed on the arm occurred five hours after placement of the patch, which peak concentration from the patch placed on ABTT terminus 10 was about 30 minutes after placement of the patch. […] Other compounds tested show similar results. […] In addition, it should be noted that use of a known patch would be disadvantageous if applied to ABTT terminus 10, because a lesser quantity of a drug is required to achieve the same results. […] In order to achieve the same effect at ABTT terminus 10 as application of a conventional patch in a conventional application, only about ⅔ the quantity of a drug is required for the same effect at ABTT terminus 10.

SMILES | therapeutic effect of patch delivering melatonin through the skin of ABTT target area [1] | elimination half-life [2] | time of peak concentration of caffeine after placement of the patch ([3]; 15 mm by 15 mm patch placed on ABTT terminus, FIG. 106 curve 1416) | time of peak concentration of caffeine after placement of the patch ([3]; 15 mm by 15 mm patch placed on upper arm, FIG. 106 curve 1414) | peak concentration from patch on ABTT terminus relative to peak concentration from patch on upper arm ([3]; 15 mm by 15 mm patches, concentration measured in the same location on the body)
COc1ccc2[nH]cc(CCNC(C)=O)c2c1 [melatonin] | shown to provide an intended therapeutic effect | short | – | – | –
Cn1c(=O)c2c(ncn2C)n(C)c1=O [caffeine] | – | – | about 30 minutes | five | more than twice as high
